Assay results from patent publication US8557847B2, “Synergistic modulation of FLT3 kinase using a FLT3 inhibitor and a farnesyl transferase inhibitor” (Janssen Pharmaceutica, N.V., priority 2005, dated 2013).
Structures can show the parent of a compound that is named as a salt. Where two headings read alike, the source gives them in different places.

Legend:
[1] = tested on: Baf3-FLT3 cells stimulated with FLT ligand; test: 72-hour cell proliferation assay, single agents and FTI/FLT3 inhibitor combinations, Baf3-FLT3; format: cell-based, murine; conditions: with single sub-IC50 dose of FLT3 inhibitor Compound A (100 nM)
Description: (§1) Dose responses for the individual compounds alone were determined for each cell line using a standard 72-hour cell proliferation assay (see FIGS. 6.1-6.8). The standard chemotherapeutic agent Cytarabine was used as a control cytotoxic agent in all experiments. […] The FLT3 inhibitors, Compounds A, B, C, D, E, F G and H, individually have good potency (sub-micromolar) for the inhibition of FLT3 driven proliferation (compared to the first line cytotoxic agent Cytarabine and Tipifarnib) in cells that depend on FLT3 for growth. Each of these chemically distinct compounds alone has potential for the treatment of disorders related to FLT3, such as FLT3 positive AML. […]
(§2) To statistically evaluate the synergy of a FLT3 inhibitor and an FTI in FLT3 dependent cell lines, dosing combinations were evaluated by the method of Chou and Talalay. See Chou T C, Talalay P. (1984) “Quantitative analysis of dose-effect relationships: the combined effects of multiple drugs or enzyme inhibitors.” Adv Enzyme Regul. […] Using this method, multiple FTI and FLT3 combinations were evaluated. […]
(§3) Cell proliferation assay for MV4-11, Baf3-ITD, Baf3-FLT3 and THP-1 cells. […] Total cell growth is quantified as the difference in luminescent counts (relative light units, RLU) of cell number at Day 0 compared to total cell number at Day 3 (72 hours of growth and/or compound treatment). […]

[2] = target: T1, wild-type FLT3 phosphorylation in Baf3 FLT3 cells (Homo sapiens, UniProt P36888); test: Cell-based FLT3 receptor ELISA; conditions: uncertainty ±20%
T1 construct: host or cells: Baf3 (murine B cell lymphoma line)
T1 sequence (P36888 27-993): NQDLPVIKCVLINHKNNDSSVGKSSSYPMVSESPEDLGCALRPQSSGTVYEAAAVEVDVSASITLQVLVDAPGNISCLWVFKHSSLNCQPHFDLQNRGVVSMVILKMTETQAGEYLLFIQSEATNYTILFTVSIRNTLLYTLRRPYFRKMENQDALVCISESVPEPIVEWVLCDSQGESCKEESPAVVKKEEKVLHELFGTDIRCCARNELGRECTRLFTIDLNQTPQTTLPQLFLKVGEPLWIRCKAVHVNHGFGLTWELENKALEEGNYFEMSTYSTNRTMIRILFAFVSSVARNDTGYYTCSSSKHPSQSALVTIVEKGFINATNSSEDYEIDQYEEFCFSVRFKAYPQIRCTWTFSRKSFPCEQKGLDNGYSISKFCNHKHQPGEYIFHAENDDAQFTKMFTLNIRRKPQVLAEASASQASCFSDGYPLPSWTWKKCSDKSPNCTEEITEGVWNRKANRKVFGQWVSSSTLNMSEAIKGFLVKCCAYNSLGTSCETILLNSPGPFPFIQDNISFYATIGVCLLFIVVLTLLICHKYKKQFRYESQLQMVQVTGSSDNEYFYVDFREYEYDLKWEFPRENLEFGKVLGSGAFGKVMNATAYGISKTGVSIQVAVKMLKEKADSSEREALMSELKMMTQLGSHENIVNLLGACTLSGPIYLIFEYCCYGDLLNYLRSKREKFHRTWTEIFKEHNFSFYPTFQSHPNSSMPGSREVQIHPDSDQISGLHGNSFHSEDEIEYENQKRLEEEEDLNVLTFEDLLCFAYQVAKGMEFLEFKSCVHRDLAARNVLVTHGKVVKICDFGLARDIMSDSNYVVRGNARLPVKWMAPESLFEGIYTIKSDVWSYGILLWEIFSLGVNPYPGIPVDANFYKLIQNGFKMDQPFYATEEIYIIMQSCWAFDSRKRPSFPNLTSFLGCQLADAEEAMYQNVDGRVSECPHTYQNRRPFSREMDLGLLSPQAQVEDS
From the text: Data points are an average of triplicate samples. […] Leukemia.

[3] = target: T2, isolated kinase domain of the human FLT3 receptor (a.a. 571-993) (Homo sapiens, UniProt P36888); test: FLT3 fluorescence polarization kinase assay; format: biochemical; conditions: 150 uM ATP; uncertainty ±10%; read-out: Flt-3 IC50
T2 construct: human FLT3 receptor (a.a. 571-993)
T2 sequence (P36888 571-993): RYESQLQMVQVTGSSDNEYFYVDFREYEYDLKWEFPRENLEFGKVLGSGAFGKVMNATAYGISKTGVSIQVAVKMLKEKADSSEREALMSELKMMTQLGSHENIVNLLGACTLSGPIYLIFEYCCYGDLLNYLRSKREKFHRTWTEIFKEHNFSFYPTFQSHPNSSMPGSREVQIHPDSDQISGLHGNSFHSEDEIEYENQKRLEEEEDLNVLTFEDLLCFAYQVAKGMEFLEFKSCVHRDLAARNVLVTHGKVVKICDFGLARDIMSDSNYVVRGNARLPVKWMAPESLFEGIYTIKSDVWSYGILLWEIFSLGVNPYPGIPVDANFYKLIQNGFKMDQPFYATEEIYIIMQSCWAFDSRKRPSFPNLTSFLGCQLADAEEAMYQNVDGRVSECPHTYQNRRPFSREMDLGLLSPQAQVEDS
From the text: The FLT3 FP assay utilizes the fluorescein-labeled phosphopeptide and the anti-phosphotyrosine antibody included in the Panvera Phospho-Tyrosine Kinase Kit (Green) supplied by Invitrogen. When FLT3 phosphorylates polyGlu4Tyr, the fluorescein-labeled phosphopeptide is displaced from the anti-phosphotyrosine antibody by the phosphorylated poly Glu4Tyr, thus decreasing the FP value. […] The kinase reaction is stopped with the addition of EDTA. The fluorescein-labeled phosphopeptide and the anti-phosphotyrosine antibody are added and incubated for 30 minutes at room temperature.
Data points are an average of triplicate samples. Inhibition and IC50 data analysis was done with GraphPad Prism using a non-linear regression fit with a multiparamater, sigmoidal dose-response (variable slope) equation.

[4] = tested on: MV-4-11 tumor xenografts; test: MV-4-11 tumor xenografts, FLT3 inhibitor Compound D administered with Tipifarnib; format: in vivo, nude mice; conditions: Compound D 25 mg/kg bid oral, Day 16
From the text: The starting mean tumor volume for each treatment group was approximately 250 mm3.
Dosing was continued for sixteen consecutive days.

[5] = target: T3, FLT3 phosphorylation in MV4-11 tumors (Homo sapiens, UniProt P36888, INS600HVDFREYEYD); test: FLT3 phosphorylation in MV4-11 tumors, Compound D; format: in vivo, nude mice; conditions: tumors harvested 6 hours later
T3 construct: host or cells: MV4-11 human AML cells (in culture, or as xenograft tumors in nude mice)
T3 sequence (P36888 with tags, fused parts or gaps INS600HVDFREYEYD): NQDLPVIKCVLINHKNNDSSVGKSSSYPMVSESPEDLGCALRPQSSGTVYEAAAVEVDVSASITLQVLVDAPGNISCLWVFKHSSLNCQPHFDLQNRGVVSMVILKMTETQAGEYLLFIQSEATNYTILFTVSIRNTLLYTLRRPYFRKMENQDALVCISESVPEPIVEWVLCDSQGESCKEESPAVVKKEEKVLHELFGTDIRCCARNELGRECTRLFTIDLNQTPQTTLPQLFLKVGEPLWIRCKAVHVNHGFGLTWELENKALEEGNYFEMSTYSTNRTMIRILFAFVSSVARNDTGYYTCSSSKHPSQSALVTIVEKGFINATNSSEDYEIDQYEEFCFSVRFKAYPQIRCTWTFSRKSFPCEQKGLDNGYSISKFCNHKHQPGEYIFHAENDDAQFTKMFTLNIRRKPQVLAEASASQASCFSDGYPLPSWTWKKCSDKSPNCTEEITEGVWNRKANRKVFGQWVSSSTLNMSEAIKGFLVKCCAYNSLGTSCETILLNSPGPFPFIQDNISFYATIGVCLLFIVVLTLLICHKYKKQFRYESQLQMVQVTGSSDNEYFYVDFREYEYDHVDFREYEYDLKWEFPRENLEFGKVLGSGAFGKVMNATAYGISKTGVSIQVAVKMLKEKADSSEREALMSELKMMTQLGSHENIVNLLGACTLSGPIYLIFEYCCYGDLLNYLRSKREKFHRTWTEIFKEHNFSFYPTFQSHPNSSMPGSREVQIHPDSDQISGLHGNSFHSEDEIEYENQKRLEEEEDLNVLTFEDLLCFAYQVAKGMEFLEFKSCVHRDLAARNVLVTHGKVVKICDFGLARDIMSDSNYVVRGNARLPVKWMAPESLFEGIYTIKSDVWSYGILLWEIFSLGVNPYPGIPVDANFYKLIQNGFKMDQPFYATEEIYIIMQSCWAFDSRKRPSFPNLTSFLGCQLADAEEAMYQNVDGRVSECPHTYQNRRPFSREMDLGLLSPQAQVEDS
Description: Tumors were harvested 6 hours later and snap frozen for assessment of FLT3 phosphorylation by western blots.
Harvested tumors were frozen and processed for immunoblot analysis of FLT3 phosphorylation in the following manner: 200 mg of tumor tissue was dounce homogenized in lysis buffer (50 mM Hepes, 150 mM NaCl, 10% Glycerol, 1% Triton —X-100, 10 mM NaF, 1 mM EDTA, 1.5 mM MgCl2, 10 mM NaPyrophosphate) supplemented with phosphatase (Sigma Cat# P2850) and protease inhibitors (Sigma Cat #P8340). Insoluble debris was removed by centrifugation at 1000×g for 5 minutes at 4° C.
Immunoprecipitated FLT3 from tumor lysates were then washed four times with lysis buffer and separated by SDS-PAGE. […] Blots were then stripped and reprobed with anti-FLT3 antibody for normalization of phosphorylation signals.

[6] = tested on: MV4-11 tumor xenografts; conditions: for inhibition of mean tumor volume compared to vehicle-treated group: Day 11
[7] = tested on: MV4-11 AML cells; test: 72-hour cell proliferation assay, single agents and FTI/FLT3 inhibitor combinations, MV4-11; format: cell-based; conditions: Homo sapiens, IC50 of the FLT3 inhibitor, alone or within the labelled combination, average of three experiments
Description: as §1, §2, §3

With `Cn1cncc1[C@@](N)(c1ccc(Cl)cc1)c1ccc2c(c1)c(-c1cccc(Cl)c1)cc(=O)n2C` (single isomer, unassigned) [Tipifarnib, reference compound] as the molecule, how does the “increase in potency of Tipifarnib” value [1] read?
Its value is “more than 3 fold”.

For `N#Cc1c[nH]c(C(=O)Nc2ccc(C3CCNCC3)cc2C2=CCCCC2)n1` [Compound 14, 4-Cyano-1H-imidazole-2-carboxylic acid (2-cyclohex-1-enyl-4-piperidin-4-yl-phenyl)-amide trifluoroacetic acid salt], which IC50 [2] is on record?
Its IC50 is 770 nM.

And the IC50 [3]?
Its IC50 is 32 nM.

What does the source list for `CN(C)CC(=O)N1CCC(c2ccc(NC(=O)c3nc(C#N)c[nH]3)c(C3=CCCCC3)c2)CC1` [Compound 38, 4-Cyano-1H-imidazole-2-carboxylic acid {2-cyclohex-1-enyl-4-[1-(2-dimethylamino-acetyl)-piperidin-4-yl]-phenyl}-amide]?
inhibition of tumor volume compared to vehicle-treated control group [4]: 76%; level of FLT3 phosphorylation in MV4-11 tumors ([5]; single dose 10 mg/kg po): partial reduction; level of FLT3 phosphorylation in MV4-11 tumors ([5]; single dose 100 mg/kg po): biologically significant reduction; tumor growth compared to vehicle-treated control group ([6]; 10 mg/kg b.i.d. oral): no significant growth delay; final tumor weight ([6]; 10 mg/kg dose): no significant decrease; tumor regression, decrease versus starting mean tumor volume on Day 1 ([6]; 50 mg/kg b.i.d. oral): 98%; inhibition of mean tumor volume compared to vehicle-treated group ([6]; 50 mg/kg b.i.d. oral): ~100%; final tumor weight ([6]; 50 mg/kg dose): no measurable tumor mass detectable; tumor regression, decrease versus starting mean tumor volume on Day 1 ([6]; 100 mg/kg b.i.d. oral): 93%; inhibition of mean tumor volume compared to vehicle-treated group ([6]; 100 mg/kg b.i.d. oral): ~100%; mice with palpable, measurable tumor on study day 34 ([6]; 100 mg/kg, dosing stopped on Day 12, tumor allowed to re-grow): 6/12; body weight compared to starting body weight ([6]; across all dose groups): no significant loss of body weight; IC50 [7]: 13.8 nM
